Data reported in patent US6448224B1, “Antibiotics and methods of using the same” (priority 1998, dated 2002).
Entries after “also recorded” stand apart in the source; their conditions may differ.

Key:
pneumococcal strain R6 [1] = experiment: Cell viability (CFU/ml) of R6, plating on blood agar; type: cell-based, Streptococcus pneumoniae; details: 0.1 mM peptide
Method: (§1) The peptide having amino acid sequence SEQ ID NO:2 was chemically synthesized and tested for growth inhibiting, killing and lytic activity in Streptococcus pneumoniae cultures. To characterize the antibacterial activity of the peptide, pneumococcal strain R6 which is sensitive to penicillin was exposed to 0.1 mM of the peptide having the amino acid sequence of SEQ ID NO:2 at an optical density of 0.01 (bacterial density of 3×10^6 cfu/ml). Bacterial growth as measured by optical density was followed for 11 hours and viability was assessed by plating on blood agar. […] Four hours after the start of the experiment, the control strain grew from 3×10^6 to 1.2×10^7 cfu/ml. In contrast, four hours after addition of the peptide, the viable bacterial number decreased from 3×10^6 to 3×10^4 CFU/ml (10^3-fold lower than the control).
(§2) Tolerance to penicillin occurs in bacteria that fail to trigger autolysins in response to the drug. […] This is a mechanism of resistance to these drugs and is a serious emerging medical problem. […] However, one pneumococcal strain that fails to lyse and dies slowly in response to both penicillin and vancomycin is the clinical isolate A144. This combination of traits makes A144 recalcitrant to therapy. FIG. 8 compares the activity of penicillin, vancomycin, and the peptide against a classical sensitive strain, R6, and the tolerant strain A144. […] In contrast, strain A144 loses only 0.5 logs of viability in the same time period for all three therapies. […] Thereafter the bacteria grew more slowly than untreated controls.

clinical isolate A144 [2] = experiment: Cell viability (CFU/ml) of clinical isolate A144 one hour after addition; type: cell-based, pneumococcus; details: 10×MIC penicillin, 10×MIC vancomycin or 0.4 mM peptide
Source text: as §2

Lyt 4-4 = experiment: Chain morphology of Lyt 4-4; type: cell-based, Streptococcus pneumoniae; details: 0.5 mM peptide in the medium
Source text: Loss of chain formation is a measure of antibacterial activity independent of autolysin.
Strains of pneumococcus that are tolerant to penicillin, such as Lyt 4-4, grow in long chains as compared to the diplococcal morphology of wild type pneumococci. FIG. 6A illustrates these chains, which extend to 30-50 bacteria in length.

RR/HK mutants = experiment: Antibacterial activity of the peptide in mutants: growth inhibition, RR/HK mutants; type: cell-based, S. pneumoniae; details: peptide added exogenously
Source text: (§3) To test this hypothesis the ability of the peptide having the amino acid sequence of SEQ ID NO:2 to maintain antibacterial activity in the mutants was examined. […] Furthermore, bacteria which are tolerant by virtue of phenotypic tolerance due to slow growth rate or mutations in genes other than the RR/HK will be susceptible to the antibacterial effect of the peptide.

mutant in ORF WI = experiment: Antibacterial activity of the peptide in mutants: growth inhibition, ORF W1 mutant; type: cell-based, S. pneumoniae; details: peptide added from the outside
Source text: as §3

pneumococcal strain R6 [3] = experiment: Cell growth curves (OD 620 nm) of R6 cultures with or without test reagents; type: cell-based, Streptococcus pneumoniae; details: for ability to inhibit R6 growth (FIG. 5): 100 μM peptide added to growing R6 at OD 620 nm of 0.1
Method: (§4) Cell growth curves were performed in the presence or absence of the test reagents as specified. In short, samples were prepared as follows: 1 ml of a pneumococcus culture was placed into 10 ml of prewarmed Semisynthetic (C+Y) medium. The optical density (OD) of the bacteria was monitored at 620 nm until an OD of approximately 0.1 was reached. At this point the test reagents were administered to the samples. The cells were cultured for up to 11 hours at 37° Celsius, and the OD at 620 nm was monitored every hour. A decrease in OD 620 is indicative of cell lysis, an increase is indicative of bacterial growth. No change in optical density indicates growth inhibition.
as §1
The fact that the peptide is active in the range below 1 μg/ml places the potency of its antibacterial effect in the same range as conventional antibiotics.
R6 with no peptide was the control and underwent exponential growth.

[4] = test system: Lyt-4-4 strain of Streptococcus pneumoniae (loss of LytA activity); experiment: Growth curve (OD 620 nm) of autolysin deficient strain Lyt 4-4; type: cell-based; details: 0.1 mM peptide; absence of autolytic activity
Method: The addition of the additives were made at time “0” hours. The strain of bacteria cultured was the Lyt-4-4 strain of Streptococcus pneumoniae which harbors a mutation leading to the loss of LytA activity. The peptide having the amino acid sequence of SEQ ID NO:2 was added as indicated at a concentration of 0.1 mM. Lyt-4-4 lacks active autolysin LytA and is therefore tolerant to penicillin treatment.
as §4
This antibacterial effect was also demonstrable in bacteria mutated so as to prevent autolysis by point mutation in the autolysin, as in the autolysin deficient strain Lyt 4-4.

HK mutant strain Van S = experiment: Lysis of HK mutant VanS cells; type: cell-based, pneumococcus; details: 10×MIC penicillin and/or 0.5 mM peptide
Method: (§5) FIGS. 11A-11B show the effects of 10×MIC of penicillin and/or 0.5 mM of the peptide having the amino acid sequence of SEQ ID NO:2 on the lysis of clinical isolate F79 cells (FIG. 11A) and HK mutant VanS cells (FIG. 11B).
(§6) F79 is a natural isolate of pneumococcus with mutations in the HK and the ABC transporter genes as determined by SSCP (see Example 11). This strain is tolerant to penicillin and vancomycin.

[5] = test system: pneumococcus R6, non-growing; experiment: Lysis of R6 cells under starvation conditions (medium lacking lysine); type: cell-based; details: 10×MIC penicillin and/or 0.5 mM peptide
Source text: When bacteria grow slowly or stop growing due to nutrient deprivation, they become tolerant to antibiotics of all classes. […] This prolongs the course of antibiotics needed to treat these infections. For instance, many weeks of therapy are required to treat endocarditis and osteomyelitis secondary to slowly growing bacteria. An in vitro example of phenotypic tolerance is shown in FIG. 10 where pneumococcus R6 has been transferred at time 0 to a medium lacking the essential amino acid lysine. Penicillin was added 5 min after the transfer. […] This same response is seen with the peptide.

clinical isolate A144 [6] = experiment: Growth of clinical isolate A144; type: cell-based, pneumococcus; details: 0.1 mM peptide added early in the growth cycle; for 4 hours
Source text: as §2

[7] = test system: HK insertion duplication mutant of R6x; experiment: Phenotypes of the mutants: lysis, HK mutant; type: cell-based, S. pneumoniae
Method: (§7) Bacterial strains and growth conditions: The parental strain of S. pneumoniae used in these studies was R6x [Tiraby et al., Proc. Natl. Acad. Sci. USA., 70:3541-3545 (1973)], a derivative of the unencapsulated Rockefeller strain R36A [Avery et al., J. Ex. Med., 79:137-158 (1944)]. Pneumococci were routinely grown on tryptic soy agar (TSA, Difco) supplemented with sheep blood to a final concentration of 3% (v/v). For growth in liquid culture, the bacteria were grown in a semi-synthetic casein hydrolysate medium supplemented with yeast extract (C+Y, [Lacks et al., Biochem. Biophys. Acta., 39:508-517 (1960)]). For the selection and maintenance of pneumococci containing chromosomally integrated plasmids, bacteria were grown in the presence of 1 μg/ml erythomycin and/or 250 μg/ml kanamycin.
(§8) Construction of mutations: Insertion duplication mutagenesis was carried out using PCR to generate gene fragments for homologous recombination proximal to the amino terminus of Orf W1, HK or RR as follows:
HK: 411 bp gene fragment spanning residues 279 (EcoR1 site) to 690 (BamH1 site) of SEQ ID NO:13.
(§9) Phenotypes of the mutants: The mutants were assessed for various physiological functions characteristic of pneumococci. This included lysis by penicillin, vancomycin, and the detergent deoxycholate (DOC). Other capabilities tested included ability to undergo natural DNA transformation (Transform) and expression of the LytA protein as assessed by Western blot. All mutants grew at the normal 30-40 minute doubling time and formed the classical diplococcal morphology.

[8] = test system: RR insertion duplication mutant of R6x; experiment: Phenotypes of the mutants: lysis, RR mutant; type: cell-based, S. pneumoniae
Method: as §7, §8
RR: 371 bp gene fragment spanning residues 142 (EcoR1 site) to 513 (BamH1 site) of SEQ ID NO:15.
as §9

[9] = test system: Orf W1 insertion duplication mutant of R6x; experiment: Phenotypes of the mutants: lysis, Orf W1 mutant; type: cell-based, S. pneumoniae
Method: as §7, §8
OrfW1: 435 bp gene fragment spanning residues 473 (EcoR1 site) to 908 (BamH1 site) of SEQ ID NO:21.
as §9

[10] = test system: loss of function mutants of the ABC transporter and RR/HK; experiment: Tolerance of loss of function mutants in ABC transporter and RR/HK to antibiotics; type: cell-based, S. pneumoniae; details: all 3 mutants; growth inhibitory concentrations
Source text: As described in Example 6, using insertion duplication mutagenesis, loss of function mutations were obtained in each of the 3 open reading frames of the ABC transporter and each of the two parts of the RR/HK. […] These parallel phenotypes further implicate these topographically close genes in a common pathway.
Vancomycin is the only antibiotic that maintains efficacy against many strains of highly antibiotic resistant bacteria, such as staphylococci, enterococci and pneumococci. Escape from antibiotic activity of vancomycin has been detected in rare staphylococci and enterococci but not in pneumococci as yet. […] Infect. Dis. J., 12:196-200 (1993); Marton et al., J. Infect. Dis., 163:542-8 (1991); and Bradley et al., Pediatr. Infect. Dis., 14:1037-1041(1995)]. […] If they created a phenotype which was corrected by exogenous peptide, they may participate in the biological activity of the peptide. For instance, the ABC transporter may transport the peptide and the HK may serve as an extracellular receptor for the peptide which then changes the behavior of the bacteria (i.e. killing) via a RR signal.

[11] = test system: clinical isolate F79 (mutations in HK and ABC transporter genes); experiment: Lysis of clinical isolate F79 cells; type: cell-based, pneumococcus; details: 10×MIC penicillin and/or 0.5 mM peptide
Method: as §5, §6

MRKEFHNVLSSGQLLADKRPARDYN (listed as Streptococcus pneumoniae) [Peptide 1]
viable bacterial number lower than the control (pneumococcal strain R6 [1]; four hours): 10^3 fold | killing of R6 (FIG. 2B) (pneumococcal strain R6 [1]; listed as SEQ ID NO:2): kills the bacteria without substantial cell lysis occurring; also recorded: rapidly killed | viable bacterial number four hours after addition of the peptide (pneumococcal strain R6 [1]; start 3×10^6, control grew to 1.2×10^7 cfu/ml): 3×10^4 CFU/ml | loss of viability of A144 within one hour (clinical isolate A144 [2]): 0.5 logs | chain morphology of Lyt 4-4 (Lyt 4-4; listed as SEQ ID NO.2): dissolution of the chains | chain morphology of Lyt 4-4 (Lyt 4-4; listed as the peptide): reversion of the chains to diplococci | growth inhibition of the RR/HK mutants (RR/HK mutants): did not function to inhibit the growth | growth inhibition of the mutant in ORF W1 (mutant in ORF WI): not able to inhibit growth | ability to inhibit R6 growth (FIG. 5) (pneumococcal strain R6 [3]): significant delay in the onset of bacterial growth | lysis (pneumococcal strain R6 [3]; 0.1 mM peptide, R6, followed for 11 hours): No lysis was detected | growth of the bacteria (optical density) (pneumococcal strain R6 [3]; 0.1 mM peptide, R6 at optical density 0.01 (3×10^6 cfu/ml), followed for 11 hours): completely inhibited growth | minimum effective concentration (MEC) (pneumococcal strain R6 [3]; R6, converted with molecular weight 2940): 0.15 to 0.3 µg/mL | minimum effective concentration (MEC) (pneumococcal strain R6 [3]; R6, optical density of the culture over 4 hours): 50 to 100 nM | dose response of antibacterial activity (pneumococcal strain R6 [3]; R6, various amounts of peptide, 4 hours): dose dependent antibacterial activity | bactericidal activity in strain Lyt 4-4 [4]: demonstrable | lysis / tolerance of strain Van S (HK mutant strain Van S): not responsive | lysis response of non-growing R6 [5]: same response | growth of strain A144 (clinical isolate A144 [6]): significantly inhibits the growth

MRKEFHNVLSSGQL (listed as Streptococcus pneumoniae) [Peptide 4]
ability to inhibit R6 growth (FIG. 5) (pneumococcal strain R6 [3]): Exponential growth equal to untreated bacteria

MRKEFHNVLSSGQLLADKRPARDAN [Peptide 2]
ability to inhibit R6 growth (FIG. 5) (pneumococcal strain R6 [3]): greatly decreased anti-bacterial activity

deoxycholate [DOC]
Lysis by [7]: yes | Lysis by [8]: yes | Lysis by [9]: no

MRKEFHNVLSAGQLLADKRPARDYN [Peptide 3]
ability to inhibit R6 growth (FIG. 5) (pneumococcal strain R6 [3]): greatly enhanced antibacterial effect

penicillin
lysis and death / tolerance of the mutants [10]: failed to lyse and die | Lysis by [7]: tolerant | Lysis by [8]: sensitive | loss of viability of A144 within one hour (clinical isolate A144 [2]): 0.5 logs | lysis / tolerance of F79 [11]: tolerant | Lysis by [9]: tolerant | lysis of growing R6 (pneumococcal strain R6 [3]; 10×MIC, normal growth): lyses R6 within one hour | lysis / tolerance of strain Van S (HK mutant strain Van S): tolerance | lysis response of non-growing R6 [5]: only a minimal response | viability of non-growing R6 [5]: unaffected

LADKRPARDYN (listed as Streptococcus pneumoniae) [Peptide 5]
ability to inhibit R6 growth (FIG. 5) (pneumococcal strain R6 [3]): Exponential growth equal to untreated bacteria

CN[C@H](CC(C)C)C(=O)N[C@H]1C(=O)N[C@@H](CC(N)=O)C(=O)N[C@H]2C(=O)N[C@H]3C(=O)N[C@H](C(=O)N[C@H](C(=O)O)c4cc(O)cc(O)c4-c4cc3ccc4O)[C@H](O)c3ccc(c(Cl)c3)Oc3cc2cc(c3O[C@@H]2O[C@H](CO)[C@@H](O)[C@H](O)[C@H]2O[C@H]2C[C@](C)(N)[C@H](O)[C@H](C)O2)Oc2ccc(cc2Cl)[C@H]1O [Vancomycin, vancomycin]
lysis and death / tolerance of the mutants [10]: exhibited tolerance | Lysis by [7]: tolerant | Lysis by [8]: sensitive | loss of viability of A144 within one hour (clinical isolate A144 [2]): 0.5 logs | lysis / tolerance of F79 [11]: tolerant | Lysis by [9]: tolerant

MRKEFHNVLSSGQLLADKRPARDYNRK (listed as Streptococcus pneumoniae) [Peptide 6]
ability to inhibit R6 growth (FIG. 5) (pneumococcal strain R6 [3]): the same effect

MEFMRKEFHNVLSSGQLLADKRPARDYN (listed as Streptococcus pneumoniae) [SEQ ID NO:12]
antibacterial activity against R6 (pneumococcal strain R6 [3]): no antibacterial activity
